Tests used:
[1] = system: mixture of ten synthetic Aβ peptides; experiment: IP-MS from mixture of ten synthetic Aβ peptides; type: binding; details: TOPAC matrix, 10ng/mL each peptide
[2] = system: AβpE3-x; experiment: PTM-Aβ microarray, pE3; type: binding, human; details: Donanemabbs 0,0012μg/mL, 2–48, Aβ-pE3, IC16 […], vs Aβ3-x with non-cyclized Glu
Source text: (§1) Specific PTMs might be associated with different stages of AD progression and severity, offering potential biomarkers for diagnosis and prognosis. Targeting PTMs represents a potential therapeutic strategy to prevent Aβ aggregation and neurotoxicity, thereby slowing disease progression. […] Therefore, a selected group of PTM-carrying Aβ peptides (PTM-Aβ) were incorporated into the Aβ chip to explore the potential binding preference of selected Aβ-Abs, under optimized concentrations (Figure 3). The antibodies were tested with both PTM-Aβ and the corresponding unmodified variants to provide a head-to-head comparison. This screening was performed in the presence of Aβ phosphorylated at positions Ser(8) or Ser(26), N-terminal pE at position 3, racemization/isomerization of Asp at position 1, and unmodified N-terminal variants. The dataset is divided into sections (Figure 3 a–f) for enhanced visualization, where each antibody was screened simultaneously against all peptides to locate their epitope preferences. […] A set of antibodies without reported PTM preference was applied here as controls (refer to Table 1), namely 11H3, 101–1-1, IC16, 82E1 and 3D6.
(§2) Figure 3. […] Blue and red shades indicate the binding strength over the related arrayed […] modified peptide shown on top and cognate anti-Aβ antibody to the left. […]

[3] = system: PTM-carrying Aβ peptides (PTM-Aβ); experiment: PTM-Aβ microarray, general; type: binding, human; details: general statement
Source text: as §1, §2

[4] = system: Aβ1–42 monomer, oligomer and fibril preparations; AβpE3–40; experiment: Bistris-SDS gradient PAGE/Western blot; type: binding; details: 4–12% Bistris SDS-PAGE
Procedure: No SPR-487B) (StressMarq biosciences, Victoria, BC, Canada). The samples for electrophoresis were prepared (starting from stock solutions) with final concentrations of 0.1 μg/μL) in LDS sample buffer (247.5 mM Tris-HCl, pH 8.5, 2% (w/v) lithium dodecyl sulfate (LDS), 10% (v/v) glycerol, 0.5 mM EDTA, 0.22 mM Brilliant Blue G250, 0.175 mM Phenol Red) and denatured by heating at 70°C for 10 min. […] The prechilled transfer buffer contained 25 mM Tris, 192 mM glycine, 20% (v/v) methanol and 0.0375 % Tween-20. After blotting, the membrane was washed for 10 min at room temperature in Tris-buffered saline (TBS) followed by blocking for 30 min with 5% powdered milk in TBS containing 0.1% Tween-20 (TBS-T). The blots were then incubated with primary antibodies in 5% milk in TBS-T over night at 4°C and washed 3 × for 10 min with TBS-T at room temperature. […] After 1 h incubation with the secondary antibodies, the blots were washed 3 × for 10 min with TBS-T and incubated for 5 min with ECL-Prime Western Blotting Detection Reagent (Cytiva Amersham, Little Chalfont, England). Images were recorded on a Vilber-Loumart Fusion SL blot imager. […] That way, the 4G8 reprobing signals were essentially added on top of the initial signals and background artifacts.

Donanemabbs: humanized monoclonal, biosimilar of Donanemab, Proteogenix (#PX-TA1549)
IP-MS signal of AβpE3–40 [1]: highly preferential binding
selectivity for / binding to AβpE3-x [2]: high selectivity for Aβ peptides starting with an N-terminal pE
preference for PTMs [3]: exhibited the previously reported preferences for PTMs
detection of AβpE3–40, Bistris Western blot [4]: detected multiple AβpE3–40 bands in the low Mwrange
detection of HFIP-treated monomeric, oligomeric and fibrillar Aβ1–42 [4]: very faint signals
